Assay results reported in patent US12624034B2, “Non-covalent modifiers of AKT1 and uses thereof” (Terremoto Biosciences, Inc., priority 2023, dated 2026).

Columns and labels:
[1] = test system: LAPC4 prostate cancer cells, which express the AKT1 E17K allele; experiment: Antiproliferative effects in LAPC4 cells (CellTiter Glo, 72 h); assay type: cell-based; details: Homo sapiens, LAPC4, 72 h, read-out: LAPC4 proliferation IC50
Summary of the method: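 Luminescent ATP read-out (CellTiter Glo) after 72 h compound exposure; 1,000 cells/well in IMDM + 12% FBS + 1% P/S. IC50 by Hill equation fit of luminescence vs. log(inhibitor).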

AKT1 E17K = biological target: T1, AKT1 E17K (Homo sapiens, UniProt P31749, E17K); experiment: Live cell AKT1 E17K target engagement by NanoBRET competitive probe displacement in HEK293 cells; assay type: binding; details: NanoBRET live cell target engagement, HEK293 cells, 2 h at 37° C.
T1 construct: expressed in transfected cells; host or cells: HEK293
Summary of the method: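 Read-out: BRET ratio E600/E460 from luminescence at 460 and 600 nm, fitted to a log(inhibitor) vs. response Hill equation for IC50. Intact HEK293 cells expressing NanoLuc-tagged kinase, compound dilutions with ~EC50 ATP-competitive fluorescent tracer, 2 h, 37° C.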

AKT1 WT = biological target: T2, AKT1 WT (Homo sapiens, UniProt P31749); experiment: Live cell AKT1 WT target engagement by NanoBRET competitive probe displacement in HEK293 cells; assay type: binding; details: NanoBRET live cell target engagement, HEK293 cells, 2 h at 37° C.; read-out: AKT1 WT IC50
T2 construct: expressed in transfected cells; host or cells: HEK293

AKT2 = biological target: T3, AKT2 (Homo sapiens, UniProt P31751); experiment: Live cell AKT2 target engagement by NanoBRET competitive probe displacement in HEK293 cells; assay type: binding; details: NanoBRET live cell target engagement, HEK293 cells, 2 h at 37° C.; read-out: AKT2 IC50
T3 construct: expressed in transfected cells; host or cells: HEK293
T3 sequence (P31751 whole entry): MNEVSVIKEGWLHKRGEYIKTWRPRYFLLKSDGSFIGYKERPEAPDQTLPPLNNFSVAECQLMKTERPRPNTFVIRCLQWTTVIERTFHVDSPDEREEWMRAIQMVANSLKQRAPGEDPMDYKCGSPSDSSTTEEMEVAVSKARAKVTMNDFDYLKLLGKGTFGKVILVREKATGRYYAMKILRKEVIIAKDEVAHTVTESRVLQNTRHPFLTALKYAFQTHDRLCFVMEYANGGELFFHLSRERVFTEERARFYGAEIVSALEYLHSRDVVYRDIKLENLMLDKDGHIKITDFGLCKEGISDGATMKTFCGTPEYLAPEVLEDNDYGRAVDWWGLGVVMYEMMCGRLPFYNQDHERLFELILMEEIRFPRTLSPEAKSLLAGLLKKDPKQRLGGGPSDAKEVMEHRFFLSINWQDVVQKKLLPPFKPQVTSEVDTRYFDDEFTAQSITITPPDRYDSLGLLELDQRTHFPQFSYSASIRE

T1 sequence (P31749 whole entry E17K): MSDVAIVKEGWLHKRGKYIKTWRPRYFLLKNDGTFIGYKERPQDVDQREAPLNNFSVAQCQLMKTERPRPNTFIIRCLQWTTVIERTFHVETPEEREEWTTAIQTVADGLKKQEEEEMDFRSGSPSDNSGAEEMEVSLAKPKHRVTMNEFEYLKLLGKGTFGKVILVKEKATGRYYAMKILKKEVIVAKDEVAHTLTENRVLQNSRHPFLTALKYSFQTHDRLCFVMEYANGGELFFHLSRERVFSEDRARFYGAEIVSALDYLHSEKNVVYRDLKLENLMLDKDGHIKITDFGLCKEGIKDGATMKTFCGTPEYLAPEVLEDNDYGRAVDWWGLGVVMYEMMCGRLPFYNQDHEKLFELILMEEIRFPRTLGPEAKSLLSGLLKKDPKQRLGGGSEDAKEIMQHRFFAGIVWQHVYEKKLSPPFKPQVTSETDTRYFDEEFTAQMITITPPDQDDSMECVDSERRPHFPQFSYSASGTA
T2 sequence (P31749 whole entry): as the sequence (P31749 whole entry E17K) above, with K17E counted along it

IC50 [1] | IC50 (AKT1 E17K) | IC50 (AKT1 WT) | IC50 (AKT2) | SMILES
225 nM | 12.1 nM | 2.53 nM | 6.6 nM | Cn1ncc2cc(C(=O)N[C@H]3CCc4cc(-n5c(-c6cccnc6N)nc6ccc(-n7cccn7)nc65)ccc43)cnc21 [Compound 28, (S)—N-(5-(2-(2-aminopyridin-3-yl)-5-(1H-pyrazol-1-yl)-3H-imidazo[4,5-b]pyridin-3-yl)-2,3-dihydro-1H-inden-1-yl)-1-methyl-1H-pyrazolo[3,4-b]pyridine-5-carboxamide]
3650 nM | 78.6 nM | 15.9 nM | 153 nM | Cc1ncccc1C(=O)N[C@H]1CCc2cc(-n3c(-c4cccnc4N)nc4ccc(-n5cccn5)nc43)ccc21 [Compound 29, (S)—N-(5-(2-(2-aminopyridin-3-yl)-5-(1H-pyrazol-1-yl)-3H-imidazo[4,5-b]pyridin-3-yl)-2,3-dihydro-1H-inden-1-yl)-2-methylnicotinamide]
207 nM | 17.4 nM | 12 nM | 10.7 nM | Nc1ncccc1-c1nc2ccc(-n3cccn3)nc2n1-c1ccc2c(c1)CC[C@@H]2NC(=O)c1ccc(-n2cccn2)nc1 [Compound 54, (S)—N-(5-(2-(2-aminopyridin-3-yl)-5-(1H-pyrazol-1-yl)-3H-imidazo[4,5-b]pyridin-3-yl)-2,3-dihydro-1H-inden-1-yl)-6-(1H-pyrazol-1-yl)nicotinamide]
